From ChEMBL document CHEMBL3137667, “[Drug-induced liver injury; fourteenth updated edition of the bibliographic database of liver injuries and related drugs]” (Gastroenterol Clin Biol, 2004)

Columns and labels:
[1] = Highest frequency of moderate liver toxicity observed during clinical trials, expressed as a percentage. [column '% BIOL' in source]; settings: human
[2] = Highest frequency of acute liver toxicity observed during clinical trials, expressed as a percentage. [column '% AIGUE' in source]; settings: human
[3] = Times to onset, minimal and maximal, observed in the indexed observations. [column 'DELAI' in source]; settings: human
[4] = human, serum
[5] = human, serum; remark: listed apart in the source
[6] = human
[7] = human; remark: listed apart in the source
[8] = human; remark: listed apart in the source
[9] = human, serum, 4383 h
[10] = human; remark: listed apart in the source
[11] = human; remark: listed apart in the source
[12] = human; remark: listed apart in the source
[13] = human; remark: listed apart in the source
[14] = human; remark: listed apart in the source
[15] = human; remark: listed apart in the source
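For Hepatotoxicity (association with vascular disease) in this document: count of indexed literature references reporting vascular liver injury in humans, e.g. peliosis hepatitis, hepatic veno-occlusive disease or Budd-Chiari syndrome.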
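For Hepatotoxicity (benign tumour) in this document: value is a count of indexed literature references citing a benign tumour confirmed by histopathology.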
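For Hepatotoxicity (choleostasis) in this document: human cholestatic liver injury, shown by histopathology or by peak ALT or AST elevation over alkaline phosphatase ratio below 2, value counts indexed literature reports.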
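For Hepatotoxicity (chronic liver disease) in this document: chronic liver injury confirmed by histopathology or persistently raised serum aminotransferase activity beyond 6 months, value given as the count of indexed literature references.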
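For Hepatotoxicity (cirrhosis) in this document: value is a count of indexed literature references reporting cirrhosis confirmed by histopathology.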
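For Hepatotoxicity (cytolytic) in this document: human cytolytic liver injury, shown by histopathology or by a ratio above 5 of peak ALT or AST elevation to alkaline phosphatase elevation, value counts indexed references.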
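For Hepatotoxicity (granulomatous hepatitis) in this document: value is a count of indexed literature references reporting granulomatous liver disease confirmed by histopathology.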
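For Hepatotoxicity (malignant tumour) in this document: malignant tumour confirmed by histopathology, value gives the count of indexed literature references reporting it.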
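For Hepatotoxicity (severe hepatitis) in this document: human clinical data: severe hepatitis, meaning potentially life-threatening liver failure or clinically observed cases, the value counts how many indexed literature references report it.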
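For Hepatotoxicity (steatosis) in this document: steatosis confirmed by histopathology, value is the count of indexed references.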

Compound	Hepatotoxicity (moderate) [1] [%]	Hepatotoxicity (acute) [2] [%]	Hepatotoxicity (time to onset) [3]	Hepatotoxicity (moderate) [4]	Hepatotoxicity (acute) [5]	Hepatotoxicity (cytolytic) [6]	Hepatotoxicity (choleostasis) [7]	Hepatotoxicity (severe hepatitis) [8]	Hepatotoxicity (chronic liver disease) [9]	Hepatotoxicity (cirrhosis) [10]	Hepatotoxicity (granulomatous hepatitis) [11]	Hepatotoxicity (association with vascular disease) [12]	Hepatotoxicity (steatosis) [13]	Hepatotoxicity (malignant tumour) [14]	Hepatotoxicity (benign tumour) [15]	other results
CC(C)NCC(O)c1ccc(NS(C)(=O)=O)cc1 (stereo not given) [SOTALOL]	0	0	10 months	0	1	1	0	0	1	0	0	0	0	0	0	–
CN[C@@H]1[C@H](O)[C@H](NC)[C@H]2O[C@@]3(O)C(=O)C[C@@H](C)O[C@H]3O[C@@H]2[C@H]1O [SPECTINOMYCIN]	0	0	3 days	1	1	0	1	0	0	0	0	0	0	0	0	–
COc1cc(NS(=O)(=O)c2ccc(N)cc2)nc(OC)n1 [SULFADIMETHOXINE]	0	0	1 month - 2 months	0	2	1	0	0	0	0	1	0	0	0	0	–
Cc1nnc(NS(=O)(=O)c2ccc(N)cc2)s1 [SULFAMETHIZOLE]	0	0	1 month - 2 months	0	4	2	1	0	0	0	0	0	0	0	0	–
O=C1C(CC[S+]([O-])c2ccccc2)C(=O)N(c2ccccc2)N1c1ccccc1 (stereo not given) [SULFINPYRAZONE]	–	–	10 days	0	1	0	1	–	0	0	0	0	0	0	0	Hepatotoxicity (moderate) ([1]; Liver): 0%; Hepatotoxicity (acute) ([2]; Liver): 0%; Hepatotoxicity (severe hepatitis) ([8]; Liver): 0
CN1C(C(=O)Nc2ccccn2)=C(O)c2sccc2S1(=O)=O [TENOXICAM]	–	–	3 days - 5 days	8	3	–	–	–	0	0	–	0	0	0	0	Hepatotoxicity (moderate) ([1]; Liver): 27%; Hepatotoxicity (acute) ([2]; Liver): 0%; Hepatotoxicity (cytolytic) ([6]; Liver): 2; Hepatotoxicity (choleostasis) ([7]; Liver): 2; Hepatotoxicity (severe hepatitis) ([8]; Liver): 0; Hepatotoxicity (granulomatous hepatitis) ([11]; Liver): 0
COc1cc2nc(N3CCN(C(=O)C4CCCO4)CC3)nc(N)c2cc1OC (stereo not given) [TERAZOSIN]	1.9	0	4 months	1	1	0	0	0	0	0	0	0	0	0	0	–
S=P(N1CC1)(N1CC1)N1CC1 [THIOTEPA]	0	5.3	2 weeks	0	1	1	1	2	0	0	0	2	0	0	0	–
O=P(O)(O)C(Sc1ccc(Cl)cc1)P(=O)(O)O [TILUDRONIC ACID]	0.9	0	8 weeks	1	0	0	0	0	0	0	0	0	0	0	0	–
CCS(=O)(=O)CCn1c([N+](=O)[O-])cnc1C [TINIDAZOLE]	0	0	1 week	1	1	1	0	0	0	0	0	0	0	0	0	–
Sc1ncnc2[nH]ncc12 [TISOPURINE]	0	0	1.5 months	0	1	1	0	0	0	0	0	0	0	0	0	–
NC[C@H]1O[C@H](O[C@H]2[C@H](O)[C@@H](O[C@H]3O[C@H](CO)[C@@H](O)[C@H](N)[C@H]3O)[C@H](N)C[C@@H]2N)[C@H](N)C[C@@H]1O [TOBRAMYCIN]	23.5	0	1 day - 3 weeks	12	1	0	0	0	0	0	0	0	0	0	0	–
Cc1ccc(C(=O)c2ccc(CC(=O)O)n2C)cc1 [TOLMETIN]	–	–	3 weeks	3	1	0	1	–	0	0	0	0	0	0	0	Hepatotoxicity (moderate) ([1]; Liver): 14.6%; Hepatotoxicity (acute) ([2]; Liver): 0%; Hepatotoxicity (severe hepatitis) ([8]; Liver): 0
Cc1cccc(N2CC(CO)OC2=O)c1 (stereo not given) [TOLOXATONE]	0	0	15 days - 10 months	0	2	2	1	1	0	0	0	0	0	0	0	–
CC1(C)O[C@@H]2[C@@H](CO[C@@]3(COS(N)(=O)=O)OC(C)(C)O[C@@H]23)O1 [TOPIRAMATE]	23	0	2 months - 4 months	1	2	2	0	1	0	0	0	0	0	0	0	–
